From ChEMBL document CHEMBL1155818, “Uredinorubellins and caeruleoramularin, photodynamically active anthraquinone derivatives produced by two species of the genus ramularia” (J Nat Prod, 2008)
Activity calls are given as the source filed them. The calls are words filed in the database; no cut-off is given here.

Key:
Oryctolagus cuniculus [1] = species on record: Oryctolagus cuniculus; test: Reduction of cell viability in rabbit HIG82 cells at 2 uM followed by illumination at 2.5 W/cm'2 cold light for 40 seconds by XTT assay; format: functional, cell-based
Pseudomonas aeruginosa = test: Antimicrobial activity against […] Pseudomonas aeruginosa DSM1117 on exposure to 2.5 W/cm'2 cold light for 40 secs at 1 to 100 uM; format: functional, organism-based
J774.A1 [2] = test: Reduction of cell viability in mouse J774A.1 cells at 2 uM followed by illumination at 2.5 W/cm'2 cold light for 40 seconds by XTT assay; format: functional, cell-based
J774.A1 [3] = test: Reduction of cell viability in mouse J774A.1 cells at 10 uM followed by illumination at 2.5 W/cm'2 cold light for 40 seconds by XTT assay; format: functional, cell-based
Oryctolagus cuniculus [4] = species on record: Oryctolagus cuniculus; test: Reduction of cell viability in rabbit HIG82 cells at 10 uM followed by illumination at 2.5 W/cm'2 cold light for 40 seconds by XTT assay; format: functional, cell-based
HT-29 [5] = test: Reduction of cell viability in human HT29 cells at 2 uM followed by illumination at 2.5 W/cm'2 cold light for 40 seconds by XTT assay; format: functional, cell-based
HT-29 [6] = test: Reduction of cell viability in human HT29 cells at 10 uM followed by illumination at 2.5 W/cm'2 cold light for 40 seconds by XTT assay; format: functional, cell-based

Compound | Activity (Oryctolagus cuniculus [1]) | Activity (Pseudomonas aeruginosa) | Activity (J774.A1 [2]) | Activity (J774.A1 [3]) | Activity (Oryctolagus cuniculus [4]) | Activity (HT-29 [5]) | Activity (HT-29 [6])
Cc1cc(O)c2c(c1)C(=O)c1cccc(O)c1C2=O | inactive | inactive | inactive | – | – | – | –
Cc1cc(O)c2c(c1)[C@H](O)[C@]13Cc4cc(O)c5c(c4[C@H]1C=C[C@@H](O)[C@H]3OC2=O)C=C1C(=O)C=CC(O)=C1C5=O | inactive | inactive | inactive | – | – | – | –
Cc1cc(O)c2c(c1)[C@H](O)[C@]13Cc4cc(O)c5c(c4[C@H]1C=C[C@@H](O)[C@@]3(O)C2=O)C(=O)c1cccc(O)c1C5=O | Active | inactive | Active | Active | Active | – | –
Cc1cc(O)c2c(c1)[C@H](O)[C@]13Cc4cc(O)c5c(c4[C@H]1C=C[C@@H](O)[C@@]3(O)C2=O)C(=O)c1c(O)ccc(O)c1C5=O | – | inactive | – | – | – | Active | Active
